For orientation: pKi means −log10 of the Ki, conventionally taken in molar units.

The target in the assay is T1, full-length ATR (Homo sapiens, UniProt Q13535).
T1 construct: Assays were carried out at 25° C. in the presence of 5 nM full-length ATR
The assay is described as follows: ATR Inhibition Assay (radioactive-phosphate incorporation). Conditions: 5 nM full-length ATR, 10 μM [γ-33P]ATP, 800 μM target peptide, 25° C.; read-out: Ki value (Ki(app)) for inhibition of ATR. The class given is biochemical. As for the experimental part: Compounds were screened for their ability to inhibit ATR kinase using a radioactive-phosphate incorporation assay. Assays were carried out in a mixture of 50 mM Tris/HCl (pH 7.5), 10 mM MgCl2 and 1 mM DTT. Final substrate concentrations were 10 μM [γ-^33P]ATP (3mCi 33P ATP/mmol ATP, Perkin Elmer) and 800 μM target peptide ([…]).
Assays were carried out at 25° C. in the presence of 5 nM full-length ATR. An assay stock buffer solution was prepared containing all of the reagents listed above, with the exception of ATP and the test compound of interest. 13.5 μL of the stock solution was placed in a 96 well plate followed by addition of 2 μL of DMSO stock containing serial dilutions of the test compound (typically starting from a final concentration of 15 μM with 3-fold serial dilutions) in duplicate (final DMSO concentration 7%). The plate was pre-incubated for 10 minutes at 25° C. and the reaction initiated by addition of 15 μl [γ-^33P]ATP (final concentration 10 μM).
The reaction was stopped after […] by the addition of 30 μL 0.1M phosphoric acid containing 2 mM ATP. A multiscreen phosphocellulose filter 96-well plate (Millipore, Cat no. MAPHN0B50) was pretreated with 100 μL 0.2M phosphoric acid prior to the addition of 45 μL of the stopped assay mixture. The plate was washed with 5×200 μL 0.2M phosphoric acid. After drying, 100 μL Optiphase ‘SuperMix’ liquid scintillation cocktail (Perkin Elmer) was added to the well prior to scintillation counting (1450 Microbeta Liquid Scintillation Counter, Wallac).
After removing mean background values for all of the data points, Ki(app) data were calculated from non-linear regression analysis of the initial rate data using the Prism software package (GraphPad Prism version 3.0cx for Macintosh, GraphPad Software, San Diego Calif., USA).

pKi: −log10 of the molar value.

T1 sequence (Q13535 whole entry): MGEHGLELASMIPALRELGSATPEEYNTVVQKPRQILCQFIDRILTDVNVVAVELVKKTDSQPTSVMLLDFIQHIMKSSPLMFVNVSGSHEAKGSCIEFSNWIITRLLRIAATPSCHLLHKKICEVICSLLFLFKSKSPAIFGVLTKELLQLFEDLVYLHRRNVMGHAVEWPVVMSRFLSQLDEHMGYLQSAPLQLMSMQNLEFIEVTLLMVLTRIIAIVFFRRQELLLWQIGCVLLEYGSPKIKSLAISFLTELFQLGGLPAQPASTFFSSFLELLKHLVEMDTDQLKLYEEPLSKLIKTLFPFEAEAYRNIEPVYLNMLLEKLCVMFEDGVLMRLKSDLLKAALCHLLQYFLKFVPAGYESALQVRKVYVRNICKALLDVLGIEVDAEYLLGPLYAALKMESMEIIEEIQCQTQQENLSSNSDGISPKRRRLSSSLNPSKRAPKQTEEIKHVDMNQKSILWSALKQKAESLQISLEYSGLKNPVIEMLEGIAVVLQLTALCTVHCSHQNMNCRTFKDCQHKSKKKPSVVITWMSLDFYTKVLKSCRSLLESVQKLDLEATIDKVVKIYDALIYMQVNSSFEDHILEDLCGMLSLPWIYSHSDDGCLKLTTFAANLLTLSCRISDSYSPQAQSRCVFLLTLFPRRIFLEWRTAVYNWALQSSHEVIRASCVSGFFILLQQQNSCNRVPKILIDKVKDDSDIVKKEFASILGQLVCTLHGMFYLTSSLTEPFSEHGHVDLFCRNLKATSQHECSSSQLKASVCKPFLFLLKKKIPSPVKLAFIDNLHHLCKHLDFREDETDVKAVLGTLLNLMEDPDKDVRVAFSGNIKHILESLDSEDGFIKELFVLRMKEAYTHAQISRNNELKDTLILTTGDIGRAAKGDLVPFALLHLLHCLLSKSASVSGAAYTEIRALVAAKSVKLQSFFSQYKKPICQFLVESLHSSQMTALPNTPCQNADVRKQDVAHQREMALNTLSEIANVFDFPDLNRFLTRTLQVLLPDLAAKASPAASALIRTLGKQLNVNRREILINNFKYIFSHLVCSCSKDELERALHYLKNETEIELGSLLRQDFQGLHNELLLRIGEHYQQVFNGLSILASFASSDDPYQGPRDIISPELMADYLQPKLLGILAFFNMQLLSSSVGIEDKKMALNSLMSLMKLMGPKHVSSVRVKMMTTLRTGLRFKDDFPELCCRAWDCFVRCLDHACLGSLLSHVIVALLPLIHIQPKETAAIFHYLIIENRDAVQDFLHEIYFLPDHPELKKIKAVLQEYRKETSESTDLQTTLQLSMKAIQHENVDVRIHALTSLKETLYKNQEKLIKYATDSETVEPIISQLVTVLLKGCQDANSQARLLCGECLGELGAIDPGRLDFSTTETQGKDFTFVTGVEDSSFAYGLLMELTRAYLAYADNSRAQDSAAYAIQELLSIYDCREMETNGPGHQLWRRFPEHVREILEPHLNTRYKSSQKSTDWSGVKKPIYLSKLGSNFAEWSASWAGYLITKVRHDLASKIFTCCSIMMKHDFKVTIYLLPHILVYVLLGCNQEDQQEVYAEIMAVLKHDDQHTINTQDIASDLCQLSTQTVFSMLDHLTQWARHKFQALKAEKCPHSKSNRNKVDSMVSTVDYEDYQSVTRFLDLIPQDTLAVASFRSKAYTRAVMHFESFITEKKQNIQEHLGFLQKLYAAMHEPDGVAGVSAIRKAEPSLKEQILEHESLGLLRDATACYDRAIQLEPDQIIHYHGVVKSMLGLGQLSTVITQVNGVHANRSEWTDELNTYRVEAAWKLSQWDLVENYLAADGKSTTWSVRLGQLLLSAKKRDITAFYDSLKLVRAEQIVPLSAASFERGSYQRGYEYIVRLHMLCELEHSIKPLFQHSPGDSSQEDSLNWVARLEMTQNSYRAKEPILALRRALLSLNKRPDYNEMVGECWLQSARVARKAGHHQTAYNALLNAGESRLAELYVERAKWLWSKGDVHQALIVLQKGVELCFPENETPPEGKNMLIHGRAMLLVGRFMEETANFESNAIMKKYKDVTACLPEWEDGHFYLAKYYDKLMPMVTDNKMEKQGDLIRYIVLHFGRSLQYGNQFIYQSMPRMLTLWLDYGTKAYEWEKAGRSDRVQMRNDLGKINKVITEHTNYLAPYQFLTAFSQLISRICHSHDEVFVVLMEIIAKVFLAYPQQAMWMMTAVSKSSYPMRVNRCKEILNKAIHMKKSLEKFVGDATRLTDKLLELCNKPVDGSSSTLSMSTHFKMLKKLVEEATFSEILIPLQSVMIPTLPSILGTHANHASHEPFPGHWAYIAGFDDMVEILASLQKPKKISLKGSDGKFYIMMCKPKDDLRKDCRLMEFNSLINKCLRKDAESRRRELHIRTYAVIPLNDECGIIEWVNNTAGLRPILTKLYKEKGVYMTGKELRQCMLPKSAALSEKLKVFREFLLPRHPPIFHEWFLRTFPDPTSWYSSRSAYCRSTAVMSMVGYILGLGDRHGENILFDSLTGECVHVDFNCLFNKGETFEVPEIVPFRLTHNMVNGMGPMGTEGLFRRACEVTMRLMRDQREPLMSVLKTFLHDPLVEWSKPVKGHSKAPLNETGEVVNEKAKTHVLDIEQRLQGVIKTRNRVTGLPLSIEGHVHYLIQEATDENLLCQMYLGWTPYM

With `CNCc1ccc(-c2cc(-c3cncc(-c4ccc(S(=O)(=O)C(C)C)cc4)n3)on2)cc1` [Compound IV-3, 1-(4-(5-(6-(4-(isopropylsulfonyl)phenyl)pyrazin-2-yl)isoxazol-3-yl)phenyl)-N-methylmethanamine], the pKi was above 7.00. For `Cc1ncc(-c2ccc(S(C)(=O)=O)cc2)nc1C(=O)Nc1ccccc1` [Compound IV-1, 3-Methyl-6-(4-(methylsulfonyl)phenyl)-N-phenylpyrazine-2-carboxamide] the value was 6.30 to 6.60; for `CC(C)S(=O)(=O)c1ccc(-c2cncc(-c3cc(-c4ccccc4)no3)n2)cc1` [Compound IV-2, 5-(6-(4-(isopropylsulfonyl)phenyl)pyrazin-2-yl)-3-phenylisoxazole], 6.60 to 7.00.

(Values after US9334244B2, “Compounds useful as inhibitors of ATR kinase” (Vertex Pharmaceuticals Incorporated, priority 2010, dated 2016).)
